Where two headings read alike, the source gives them in different places.
System: Sprague–Dawley rats
Assay: CFA inflammatory pain / von Frey with electronic detection (eVF)
Format: in vivo
Settings: for Threshold for paw withdrawal, CFA-injected paw: young male rats, 18 g after CFA; for Threshold for paw withdrawal, CFA-injected left hind paw: young female and aged male rats (Supplementary Fig. 3), from 25 g; for ED50: Rattus norvegicus, equimolar dosing
Description: The investigators were blinded till the completion of all the experiments. To ensure objectivity, investigators were blinded for the acetic acid and tail flick experiments. In the CFA/von Frey and Hargreaves assays, one investigator did the drug pre-treatments, and another investigator at another location who was not aware of the treatments conducted the behavioral testing. Moreover, these studies used the eVF device that electronically registers the grams of force necessary to elicit paw withdrawal, eliminating bias that confounded older versions of this test in which an investigator used a series of individual von Frey microfilaments to determine paw withdrawal thresholds. Six separate experimenters were involved in the data acquisition for behavioral testing, and another separate investigator performed all the statistical analyses using GraphPad Prism Version 9.1.2. Statistical significance was determined by p < 0.05; one-way ANOVA followed by Sidak’s multiple comparisons post hoc test. Mixed-gender experiments were powered to test for gender effects, and different ages of rodents were also included for the experiments – young (2 months) and aged (20 months) to tease out whether there are any effects of age-related changes in nociceptive sensitivity under naïve, and inflammatory pre-clinical rodent pain models. For the aged rats and mice, we could only obtain male Sprague–Dawley rats and male C57BL/6 mice of 20 months old from all commercial animal vendors and from the National Institute of Aging (NIA). So, only these rodents were used for the older animal experimental cohort. Old female rats and mice were not available at the time when these experiments were conducted. For ED50 calculation, dose–response curves were calculated with regression analysis and log transformation using GraphPad Prism 9.1.2.
In this model of mechanonociception, one hind paw at a time is stimulated with an electronic von Frey (eVF) filament (noxious source) until the animal retracts the paw from the mechanical stimulus. von Frey tests were conducted in a dedicated room at the LSUHSC New Orleans Neuroscience Center of Excellence vivarium. Rats were acclimated to their environment for 2 days for 30 min/day prior to testing. To obtain eVF pressure recordings, each animal was placed in an individual plastic observation compartment on a perforated metallic grid platform, which provided access to the plantar surface of the hind paws. After acclimation to the environment for 30 min, mechanical hypersensitivity was assessed by stimulating the mid-plantar area of each hind paw with a rigid tip von Frey filament attached to the eVF meter (Ugo Basile 38,450) until animals withdrew the paw from the filament. The withdrawal threshold was defined as the average force/pressure (g) required for the rat to withdraw the stimulated paw. A brisk withdrawal of the paw (often followed by a sustained retraction and/or licking) was considered a positive response, but paw withdrawals due to locomotion or weight shifting were not counted. The von Frey studies were conducted with an eVF device that electronically registers the grams of force necessary to elicit paw withdrawal in order to eliminate bias that confounded previous older versions of this test. Baseline withdrawal thresholds of both the right and left paws were recorded, and animals were assigned to different treatment groups so that each group had approximately equal withdrawal threshold averages in both paws. After baseline testing, treated animals received subcutaneous plantar injection (150 μl) of 50% CFA diluted and freshly mixed in sterile (0.9%) saline into the left hind paw unilaterally, while control animals received a plantar injection (150 µl) of 0.9% NaCl into their left hind paw. CFA induces inflammation, resulting in a left hind paw that is hypersensitive to mechanical stimulus, while the right hind paw serves as a within-subject baseline for each animal. […]

[1] = 100 mg/kg PO (cumulative dosing)
[2] = read-out: ED50 von-Frey Assay (Rats), Aged (Male)
[3] = read-out: ED50 von-Frey Assay (Rats), Young (Female)
[4] = read-out: ED50 von-Frey Assay (Rats), Young (Male)

SMILES	Threshold for paw withdrawal, CFA-injected paw (32 mg/kg PO) [g]	Threshold for paw withdrawal, CFA-injected left hind paw (32 mg/kg) [g]	Threshold for paw withdrawal, CFA-injected paw [1] [g]	Threshold for paw withdrawal, CFA-injected left hind paw (100 mg/kg) [g]	ED50 [2] [µmol/kg]	ED50 [3] [µmol/kg]	ED50 [4] [µmol/kg]
CCN(CC)C(=O)c1ccccc1S(=O)(=O)NCC(=O)Nc1ccc(O)cc1 [SRP-001, N,N-diethyl-2-[[2-(4-hydroxyanilino)-2-oxo-ethyl]sulfamoyl]benzamide]	40	32	55	40	454	121	190
CC(=O)Nc1ccc(O)cc1 [ApAP, acetaminophen, reference compound]	34		50		358	292	574
